Our source for the inhibition and Activity values is ChEMBL document CHEMBL2029232, “Identification of small-molecule inhibitors of the steroidogenic acute regulatory protein (STARD1) by structure-based design” (Bioorg Med Chem Lett, 2012).

Calls of active or inactive are those of the source. No cut-off for these calls is given here.

Data set [1] addresses T1, Steroidogenic acute regulatory protein, mitochondrial (Mus musculus) (UniProt P51557).
T1 sequence (whole entry): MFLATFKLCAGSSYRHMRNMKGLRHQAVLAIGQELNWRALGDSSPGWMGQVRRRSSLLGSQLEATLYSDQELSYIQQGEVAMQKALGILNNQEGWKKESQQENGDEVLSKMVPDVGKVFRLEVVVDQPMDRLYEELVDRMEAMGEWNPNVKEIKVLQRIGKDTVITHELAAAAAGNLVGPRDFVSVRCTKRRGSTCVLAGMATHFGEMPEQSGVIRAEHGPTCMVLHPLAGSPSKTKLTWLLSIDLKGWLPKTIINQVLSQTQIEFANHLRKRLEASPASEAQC
The data set can be described thus: Inhibition of STAR in mouse MA-10 cells assessed as inhibition of dbcAMP-stimulated […] at 10 uM after 2 hrs by RIA. Type of data set: cell-based.

Data set [2] in a line: Inhibition of 22R-hydroxycholesterol-induced steroidogenesis in mouse MA-10 cells assessed as progesterone synthesis per mg of protein at 10 uM after 2 hrs by RIA. Type of data set: cell-based. Conditions: ma-10, 2 h.

Usually inhibition stands for how much of the control response was suppressed. Take `C[C@H](CCC(=O)O)[C@H]1CC[C@H]2[C@@H]3CC=C4C[C@@H](O)CC[C@]4(C)[C@H]3CC[C@]12C`: the inhibition entry in data set [1] is “inactive”.

For `C[C@]12CCC(=O)C=C1CC[C@@H]1[C@@H]2[C@@H](O)C[C@@]2(C)[C@H]1CC[C@]2(O)C(=O)CO`, the inhibition result in data set [1] is “inactive”.

For the molecule `C[C@]12CC[C@H]3[C@@H](CC=C4C[C@@H](O)CC[C@@]43C)[C@@H]1C/C(=C/c1ccc(OC(F)F)cc1)[C@@H]2O`, in data set [1], the inhibition is 50%. Also, the Activity in data set [2] was 923 ng.

As for `C[C@]12CC(O)[C@H]3[C@@H](CCC4=CC(=O)CC[C@@]43C)[C@@H]1CC[C@@H]2C(=O)O` (stereo partly drawn), the inhibition result in data set [1] is “inactive”.

As to `CC(=O)OCC(=O)[C@H]1CC[C@H]2[C@@H]3CC=C4C[C@@H](O)CC[C@]4(C)[C@H]3CC[C@]12C`, the inhibition in data set [1] was 50%. The Activity in data set [2] turned out to be 1301 ng.

As to `CC(=O)O[C@H]1CC[C@@]2(C)C(=CC[C@H]3[C@@H]4CC(O)[C@H]([C@H](C)OC(C)=O)[C@@]4(C)CC[C@@H]32)C1` (stereo partly drawn), the inhibition entry in data set [1] was “inactive”.
